Converted amounts (≈) assume the structure as drawn. The source made the active and inactive calls. The calls are words filed in the database; no cut-off is given here.
Legend:
[1] = Cytotoxicity against human HepG2 cells assessed as reduction in cell viability incubated for 24 hrs in DMEM/10% FBS supplemented with glucose by CellTiter-Glo luminescent assay; type: toxicity, cell-based
[2] = system: Mycobacterium tuberculosis; assay: Antitubercular activity against Mycobacterium tuberculosis H37Rv ATCC 27294 assessed as inhibition of bacterial growth cultured in Middlebrook 7H9/glucose/casitone/tyloxapol medium for 2 weeks; type: functional; settings: H37Rv ATCC 27294, 336 h
[3] = system: Mycobacterium tuberculosis; assay: Antitubercular activity against Mycobacterium tuberculosis H37Rv ATCC 27294 assessed as inhibition of bacterial growth cultured in Middlebrook 7H9/BSA/Tyloxapol with glucose medium for 2 weeks; type: functional; settings: H37Rv ATCC 27294, 336 h
[4] = Cytotoxicity against human HepG2 cells assessed as reduction in cell viability incubated for 24 hrs in DMEM/10% FBS supplemented with galactose by CellTiter-Glo luminescent assay; type: toxicity, cell-based
[5] = system: Mycobacterium tuberculosis; assay: Induction of DNA damage in Mycobacterium tuberculosis H37Rv transfected with PrecA-LUX reporter assessed as induction of recA reporter gene expression incubated for 12 days by bioluminescence analysis; type: functional, organism-based; settings: time 12.0 day
[6] = system: Mycobacterium tuberculosis; assay: Antitubercular activity against Mycobacterium tuberculosis H37Rv ATCC 27294 assessed as inhibition of bacterial growth cultured in Middlebrook 7H9/ADC/Tween 80 with cydC::aph medium for 2 weeks; type: functional; settings: H37Rv ATCC 27294, 336 h
[7] = system: Mycobacterium tuberculosis; assay: Antitubercular activity against Mycobacterium tuberculosis H37Rv ATCC 27294 assessed as inhibition of bacterial growth cultured in Middlebrook 7H9/DPPC/cholesterol/BSA/Tyloxapol medium for 2 weeks; type: functional; settings: H37Rv ATCC 27294, 336 h
[8] = system: Mycobacterium tuberculosis; assay: Antitubercular activity against Mycobacterium tuberculosis H37RV ATCC 27294 assessed as inhibition of bacterial growth cultured in Middlebrook 7H9/cholesterol/BSA/Tyloxapol medium for 2 weeks; type: functional; settings: H37Rv ATCC 27294, 336 h
[9] = system: Mycobacterium tuberculosis; assay: Antitubercular activity against Mycobacterium tuberculosis H37Rv ATCC 27294 assessed as inhibition of bacterial growth cultured in Middlebrook 7H9/ADC/Tween 80 medium for 2 weeks; type: functional; settings: H37Rv ATCC 27294, 336 h
[10] = system: Mycobacterium tuberculosis; assay: Induction of DNA damage in Mycobacterium tuberculosis H37Rv transfected with PradA-LUX reporter assessed as induction of radA reporter gene expression incubated for 12 days by bioluminescence analysis; type: functional, organism-based; settings: time 12.0 day
[11] = system: Mycobacterium tuberculosis; assay: Antitubercular activity against Mycobacterium tuberculosis K04b00DS assessed as inhibition of bacterial growth incubated for 2 weeks; type: functional; settings: 336 h
[12] = system: Mycobacterium tuberculosis; assay: Antitubercular activity against Mycobacterium tuberculosis CDC1551 assessed as inhibition of bacterial growth incubated for 2 weeks; type: functional; settings: CDC1551, 336 h
[13] = system: Mycobacterium tuberculosis; assay: Antitubercular activity against Mycobacterium tuberculosis K17b00DS assessed as inhibition of bacterial growth incubated for 2 weeks; type: functional; settings: 336 h
[14] = system: Mycobacterium tuberculosis; assay: Antitubercular activity against Mycobacterium tuberculosis K13b00DS assessed as inhibition of bacterial growth incubated for 2 weeks; type: functional; settings: 336 h
[15] = system: Mycobacterium tuberculosis; assay: Antitubercular activity against Mycobacterium tuberculosis K05b00DS assessed as inhibition of bacterial growth incubated for 2 weeks; type: functional; settings: 336 h
[16] = system: Mycobacterium tuberculosis; assay: Antitubercular activity against Mycobacterium tuberculosis K16b00DS assessed as inhibition of bacterial growth incubated for 2 weeks; type: functional; settings: 336 h
[17] = system: Mycobacterium tuberculosis; assay: Antitubercular activity against Mycobacterium tuberculosis clinical strain K5072429 assessed as inhibition of bacterial growth incubated for 2 weeks; type: functional; settings: K5072429, 336 h
[18] = system: Mycobacterium tuberculosis; assay: Antitubercular activity against Mycobacterium tuberculosis Erdman assessed as inhibition of bacterial growth incubated for 2 weeks; type: functional; settings: 336 h
[19] = system: Mycobacterium tuberculosis; assay: Antitubercular activity against Mycobacterium tuberculosis K09b00DS assessed as inhibition of bacterial growth incubated for 2 weeks; type: functional; settings: 336 h
[20] = system: Mycobacterium tuberculosis; assay: Antitubercular activity against Mycobacterium tuberculosis K15b00DS assessed as inhibition of bacterial growth incubated for 2 weeks; type: functional; settings: 336 h
[21] = system: Mycobacterium tuberculosis; assay: Antitubercular activity against Mycobacterium tuberculosis K35b00DS assessed as inhibition of bacterial growth incubated for 2 weeks; type: functional; settings: 336 h
[22] = system: Mycobacterium tuberculosis; assay: Antitubercular activity against Mycobacterium tuberculosis K12b00DS assessed as inhibition of bacterial growth incubated for 2 weeks; type: functional; settings: 336 h
[23] = system: Mycobacterium tuberculosis; assay: Antitubercular activity against Mycobacterium tuberculosis K11b00DS assessed as inhibition of bacterial growth incubated for 2 weeks; type: functional; settings: 336 h
[24] = system: Mycobacterium tuberculosis; assay: Antitubercular activity against Mycobacterium tuberculosis HN878 assessed as inhibition of bacterial growth incubated for 2 weeks; type: functional; settings: HN878, 336 h
[25] = system: Mycobacterium tuberculosis; assay: Antitubercular activity against Mycobacterium tuberculosis K07b00DS assessed as inhibition of bacterial growth incubated for 2 weeks; type: functional; settings: 336 h
[26] = system: Mycobacterium tuberculosis; assay: Antitubercular activity against Mycobacterium tuberculosis K14b00DS assessed as inhibition of bacterial growth incubated for 2 weeks; type: functional; settings: 336 h
[27] = system: Mycobacterium tuberculosis; assay: Antitubercular activity against Mycobacterium tuberculosis NIH_G12 assessed as inhibition of bacterial growth incubated for 2 weeks; type: functional; settings: NIH_G12, 336 h
[28] = system: Mycobacterium tuberculosis; assay: Antitubercular activity against Mycobacterium tuberculosis H37Rv ATCC 27294 assessed as inhibition of bacterial growth incubated for 2 weeks; type: functional; settings: H37Rv ATCC 27294, 336 h
[29] = system: Mycobacterium tuberculosis; assay: Antitubercular activity against Mycobacterium tuberculosis K10b00DS assessed as inhibition of bacterial growth incubated for 2 weeks; type: functional; settings: 336 h

SMILES	IC50 at 24 h [1] [µM]	MIC [2] [µM]	MIC [3] [µM]	IC50 at 24 h [4] [µM]	also measured
CN1CCN(C(=O)C2CCN(c3nnc(-c4ccccc4)o3)CC2)CC1	> 50	> 50	> 50	> 50	–
O=C(C1CCN(c2nnc(-c3ccccc3)o2)CC1)N1CCC(Cc2ccccc2)C1 (stereo not given)	> 50	6.25 (≈ 2.6 µg/mL)	9.4 (≈ 3.92 µg/mL)	37.5	–
O=C(C1CCN(c2nnc(-c3ccccc3)o2)CC1)N1CCC(=Cc2ccccc2)CC1	> 50	0.3 (≈ 0.129 µg/mL)	2.3 (≈ 0.986 µg/mL)	37.5	–
O=S(=O)(C1CCN(c2nnc(-c3ccccc3)o2)CC1)N1CCC(Cc2ccccc2)CC1	> 50	12.5 (≈ 5.83 µg/mL)	> 50	37.5	–
O=C(C1CCN(c2nnc(-c3ccccc3)o2)CC1)N1CCCC(Cc2ccccc2)C1 (stereo not given)	> 50	25 (≈ 10.8 µg/mL)	50 (≈ 21.5 µg/mL)	37.5	–
CC(c1ccccc1)C1CCN(C(=O)C2CCN(c3nnc(-c4ccccc4)o3)CC2)CC1 (stereo not given)	> 50	0.2 (≈ 0.0889 µg/mL)	1.56 (≈ 0.694 µg/mL)	> 50	–
NNC(=O)c1ccncc1 [ISONIAZID]	–	0.1 (≈ 0.0137 µg/mL)	0.16 (≈ 0.0219 µg/mL)	–	Activity [5]: inactive; MIC [6]: 0.39 µM (≈ 0.0535 µg/mL); MIC [7]: 0.2 µM (≈ 0.0274 µg/mL); MIC [8]: 0.39 µM (≈ 0.0535 µg/mL); MIC [9]: 0.2 µM (≈ 0.0274 µg/mL); Activity [10]: inactive
O=C(NC1CCC(Cc2ccccc2)CC1)C1CCN(c2nnc(-c3ccccc3)o2)CC1 (stereo not given)	> 50	4.7 (≈ 2.09 µg/mL)	> 50	> 50	–
O=C(C1CCN(c2noc(-c3ccccc3)n2)CC1)N1CCC(Cc2ccccc2)CC1	> 50	0.3 (≈ 0.129 µg/mL)	1.2 (≈ 0.517 µg/mL)	37.5	–
O=C(C1CCN(c2nnc(-c3ccccc3)o2)CC1)N1CCC(CC2CCCCC2)CC1	> 50	0.05 (≈ 0.0218 µg/mL)	0.2 (≈ 0.0873 µg/mL)	> 50	–
O=C(NCc1ccccc1)C1CCN(c2nnc(-c3ccccc3)o2)CC1	> 50	25 (≈ 9.06 µg/mL)	> 50	> 50	–
CC(C)(C)C1CCN(C(=O)C2CCN(c3nnc(-c4ccccc4)o3)CC2)CC1	> 50	1.2 (≈ 0.476 µg/mL)	4.7 (≈ 1.86 µg/mL)	> 50	–
O=C(C1CCN(c2nnc(-c3ccccc3)o2)CC1)N1CCC(C(F)(F)F)CC1	> 50	0.2 (≈ 0.0817 µg/mL)	1.56 (≈ 0.637 µg/mL)	> 50	–
O=C(CC1CCN(c2nnc(-c3ccccc3)o2)CC1)N1CCC(Cc2ccccc2)CC1	> 50	4.7 (≈ 2.09 µg/mL)	12.5 (≈ 5.56 µg/mL)	37.5	–
O=C(C1CCN(c2nnc(-c3ccccc3)o2)CC1)N1CCN(Cc2ccccc2)CC1	> 50	25 (≈ 10.8 µg/mL)	50 (≈ 21.6 µg/mL)	> 50	–
O=C(C1CCN(c2nnc(-c3ccc(C(F)(F)F)cc3)o2)CC1)N1CCC(Cc2ccccc2)CC1	> 50	> 50	> 50	> 50	–

SMILES	IC50 at 24 h [1] [µM]	MIC [2] [µM]	MIC [3] [µM]	IC50 at 24 h [4] [µM]	also measured
O=C(C1CCN(c2nnc(-c3ccccc3)s2)CC1)N1CCC(Cc2ccccc2)CC1	> 50	0.3 (≈ 0.134 µg/mL)	1.2 (≈ 0.536 µg/mL)	37.5	–
O=C(c1ccccc1)C1CCN(C(=O)C2CCN(c3nnc(-c4ccccc4)o3)CC2)CC1	> 50	4.7 (≈ 2.09 µg/mL)	9.4 (≈ 4.18 µg/mL)	37.5	–
COc1nc2ccc(Br)cc2cc1[C@@H](c1ccccc1)[C@@](O)(CCN(C)C)c1cccc2ccccc12 [BEDAQUILINE]	–	–	–	–	MIC [11]: 0.04 µM (≈ 0.0222 µg/mL); MIC [12]: 0.07 µM (≈ 0.0389 µg/mL); MIC [13]: 0.07 µM (≈ 0.0389 µg/mL); MIC [14]: 0.1 µM (≈ 0.0556 µg/mL); MIC [15]: 0.05 µM (≈ 0.0278 µg/mL); MIC [16]: 0.1 µM (≈ 0.0556 µg/mL); MIC [17]: 0.2 µM (≈ 0.111 µg/mL); MIC [18]: 0.1 µM (≈ 0.0556 µg/mL); MIC [19]: 0.2 µM (≈ 0.111 µg/mL); MIC [20]: 0.07 µM (≈ 0.0389 µg/mL); MIC [21]: 0.07 µM (≈ 0.0389 µg/mL); MIC [22]: 0.04 µM (≈ 0.0222 µg/mL); MIC [23]: 0.3 µM (≈ 0.167 µg/mL); MIC [24]: 0.05 µM (≈ 0.0278 µg/mL); MIC [25]: 0.15 µM (≈ 0.0833 µg/mL); MIC [26]: 0.6 µM (≈ 0.333 µg/mL); MIC [27]: 0.05 µM (≈ 0.0278 µg/mL); MIC [28]: 0.15 µM (≈ 0.0833 µg/mL); MIC [29]: 0.1 µM (≈ 0.0556 µg/mL)
Cc1nnc(N2CCC(C(=O)N3CCC(Cc4ccccc4)CC3)CC2)o1	> 50	> 50	> 50	> 50	–
O=C(C1CCN(c2nnc(-c3ccccc3)o2)CC1)N1CCC(Oc2ccccc2)CC1	37.5	2.3 (≈ 0.995 µg/mL)	4.7 (≈ 2.03 µg/mL)	37.5	–
O=C(C1CCN(c2nnc(-c3ccncc3)o2)CC1)N1CCC(Cc2ccccc2)CC1	> 50	0.39 (≈ 0.168 µg/mL)	1.2 (≈ 0.518 µg/mL)	37.5	–
O=C(C1CCCN(c2nnc(-c3ccccc3)o2)C1)N1CCC(Cc2ccccc2)CC1 (stereo not given)	> 50	25 (≈ 10.8 µg/mL)	50 (≈ 21.5 µg/mL)	37.5	–
O=C(C1CCN(c2nnc(-c3ccccc3)o2)CC1)N1CCC(Cc2ccc(C(F)(F)F)cc2)CC1	> 50	0.1 (≈ 0.0499 µg/mL)	0.3 (≈ 0.15 µg/mL)	37.5	–
O=C(C1CCN(c2nnc(-c3ccccc3)o2)CC1)N1CCc2ccccc2C1	> 50	37 (≈ 14.4 µg/mL)	50 (≈ 19.4 µg/mL)	> 50	–
O=C(C1CCN(c2nnc(-c3ccccc3)o2)CC1)N1CCC(c2ccccc2)CC1	> 50	2.3 (≈ 0.958 µg/mL)	4.7 (≈ 1.96 µg/mL)	37.5	–
CC(C)C1CCN(C(=O)C2CCN(c3nnc(-c4ccccc4)o3)CC2)CC1	> 50	2.3 (≈ 0.88 µg/mL)	4.7 (≈ 1.8 µg/mL)	> 50	–
O=C(C1CCN(c2nnc(-c3ccc(F)cc3)o2)CC1)N1CCC(Cc2ccccc2)CC1	> 50	0.15 (≈ 0.0673 µg/mL)	1.2 (≈ 0.538 µg/mL)	> 50	–
CCN(CC)C(=O)C1CCN(c2nnc(-c3ccccc3)o2)CC1	> 50	> 50	> 50	> 50	–
CCCCCC[C@H]1C(=O)O[C@H](C)[C@H](NC(=O)c2cccc(NC=O)c2O)C(=O)O[C@@H](C)[C@@H]1OC(=O)CC(C)C [ANTIMYCIN A]	> 250	–	–	0.12	–
O=C(C1CCN(c2nnc(-c3ccccc3)o2)C1)N1CCC(Cc2ccccc2)CC1 (stereo not given)	> 50	6.3 (≈ 2.62 µg/mL)	50 (≈ 20.8 µg/mL)	> 50	–
O=C(C1CCN(c2nnc(-c3ccccc3)o2)CC1)N1CCCCC1	> 50	> 50	> 50	> 50	–

From ChEMBL document CHEMBL5370592, “Synthesis and Structure-Activity Relationships of a New Class of Oxadiazoles Targeting DprE1 as Antitubercular Agents” (ACS Med Chem Lett, 2023)
